Data from paper PMC8880564, “Design, Synthesis, and Biological Evaluation of a Novel VEGFR-2 Inhibitor Based on a 1,2,5-Oxadiazole-2-Oxide Scaffold with MAPK Signaling Pathway Inhibition” (Pharmaceuticals, 2022).

Experiments:
[1] = tested on: normal human skin fibroblast cells (HSF); experiment: Selectivity towards cancer cells, normal cells by MTT; type: cell-based; conditions: at a concentration as high as 50 µM, 48 h
Method: Furthermore, the selectivity index (SI) of compound 12b towards the various cancer cell lines was evaluated by detecting the required concentration to kill 50% of normal human skin fibroblast cells (HSF).
According to the procedures of Bézivin et al. (with minor modifications), the selectivity of compound 12b against cancer cell lines was evaluated by seeding human skin fibroblast cells (HSF) at 5 × 10^4 cells/mL in a 96-well plate and incubating them overnight at 37 °C and 5% CO2. On the second day, serial dilution of the compound 12b was added. After 48 h of incubation, the viability of HSF cells was determined by MTT assay as mentioned above and the selectivity index (SI) was calculated according to Equation (1):
Equation (1) Calculation of selectivity index. (1) SI=IC50 normal cells/IC50 cancer cell

[2] = tested on: HepG2 cells; experiment: Apoptosis analysis, Annexin-V/PI flow cytometry; type: cell-based, human; conditions: HepG2, 5.5 or 11 µM, 24 h
Method: The mechanism of action of 12b was investigated by evaluating its effectiveness in modulating the cell cycle and induction of apoptosis.
Briefly, HepG2 cells (10^6 cells/mL) were treated either with 12b (5.5 or 11 µM) or with DMSO for 24 h, and then were collected after trypsinization and washed twice with 1× PBS. The induction of apoptosis was analyzed by staining cells with PE-Annexin-V [85] in the presence of PI and analyzed using the BD FACS Calibur Flow cytometer.

[3] = tested on: HepG2 cells; experiment: Wound-healing assay; type: cell-based, human; conditions: HepG2, serum-free media, 24 h, vs DMSO-treated cells
Method: A wound-healing assay is a simple and economical assay used to investigate the anti-metastatic activity of compounds. Cells were treated with compound 12b in serum-free media for 24 h. After that, the cells were fixed with ice-cold methanol and air-dried, then stained with 0.5% crystal violet.

[4] = tested on: MMP-9; experiment: Western blot analysis in HepG2 cells; type: cell-based, human; conditions: HepG2, 48 h
Method: (§1) The mitogen-activated protein kinase (MAPK) pathway is considered to be a key player in the gene expression of survival, proliferative, and anti-apoptotic proteins. Aberrant dysregulation in the MAPK pathway activity has been linked to the overall poor prognosis in various cancers. […] Additionally, compound 12b was further tested against p38, MKK3, and JNK using ELISA assay protocols at a concentration of 11 µM. […] The overexpression of JNK might have contributed to the NO released from 12b and reactive oxygen species (ROS). In summary, the novel anticancer lead compound 12b is worthy of further investigation and activity improvement.
(§2) The cells were seeded (2.5 × 10^5 cells/mL) and treated as described above. After 48 h of incubation with compound 12b, cells were lysed by RIPA buffer containing 1x protease and phosphatase inhibitor cocktail (Thermo Scientific™, Waltham, MA, USA). The supernatant was collected after centrifugation at 4 °C and the Pierce BCA Protein Assay Kit (Thermo Scientific™, 23225, Waltham, MA, USA) was used for protein concentration detection. Proteins were then separated using SDS-PAGE at 100 V for 45 min. After that, the proteins were transferred to a nitrocellulose membrane. The membrane was subjected to a suitable primary antibody overnight. Then, an appropriate HRP-conjugated secondary antibody was used. GAPDH was used as a loading control. The membrane was developed using WesternBright® ECL (Advansta Inc., K-12045-D20, San Jose, CA, USA), and the signal was detected using ChemiDoc XRS^+ (1708265, Bio-Rad Laboratories, Hercules, CA, USA).

[5] = tested on: p21; experiment: Western blot analysis in HepG2 cells; type: cell-based, human; conditions: HepG2, 48 h
Method: as §1, §2

[6] = tested on: p27; experiment: Western blot analysis in HepG2 cells; type: cell-based, human; conditions: HepG2, 48 h
Method: as §1, §2

[7] = tested on: p53; experiment: Western blot analysis in HepG2 cells; type: cell-based, human; conditions: HepG2, 48 h
Method: as §1, §2

[8] = tested on: pERK; experiment: Western blot analysis in HepG2 cells; type: cell-based, human; conditions: HepG2, 48 h
Method: as §1, §2

[9] = tested on: total ERK; experiment: Western blot analysis in HepG2 cells; type: cell-based, human; conditions: HepG2, 48 h
Method: as §1, §2

[10] = tested on: JNK; experiment: ELISA assay in HepG-2 cells; type: cell-based, human; conditions: HepG-2, 11 µM
Method: as §1
(§3) The p38, MKK3, and JNK assays were performed according to the manufacturer’s ELISA assay protocols. Briefly, a 96-well plate was seeded with a cell density of 10,000–40,000 cells/well. Then, 50 µL of compound 12b or control (DMSO) was added to appropriate wells in triplicate. Following this, 50 µL of the antibody cocktail (in case of p38; Cat. No. ab221012, Abcam (Waltham, MA, USA) and MKK3; Cat. No. PEL-MKK3-S189-T, RayBiotech, Peachtree Corners, GA, USA) was added to each well. The plate was then sealed and incubated for 1–2.5 h at room temperature with gentle shaking. Each well was washed with 1X Wash Buffer PT (4 × 350 µL), and then the plate was inverted and tapped gently against clean paper towels to remove excess liquid. In case of JNK (Cat. No. ab176662, Abcam, Waltham, MA, USA), this washing step was applied before and after adding 1X rabbit […] antibody, then 100 µL of HRP-conjugated anti-rabbit IgG solution was added and the plate was incubated for 1 h at room temperature with gentle shaking followed by washing (4 × 350 µL). After that, 100 µL of TMB Substrate was added to each well and incubated for 15–30 min in the dark with gentle shaking. Finally, 100 µL of Stop Solution was added to each well and the plate was shaken for 1 min to mix well. The OD was recorded at 450 nm.

[11] = tested on: MKK3; experiment: ELISA assay in HepG-2 cells; type: cell-based, human; conditions: HepG-2, 11 µM
Method: as §1, §3

[12] = tested on: p38; experiment: ELISA assay in HepG-2 cells; type: cell-based, human; conditions: HepG-2, 11 µM
Method: as §1, §3

SMILES: [O-][n+]1onc(-c2ccccc2)c1CNc1ccc(Nc2nc(C(F)(F)F)nc3c2cnn3-c2ccc(Br)cc2)cc1 [12b, 3-(((4-((1-(4-bromophenyl)-6-(trifluoromethyl)-1H-pyrazolo[3,4-d]pyrimidin-4-yl)amino)phenyl)amino)methyl)-4-phenyl-1,2,5-oxadiazole 2-oxide]
- morphological changes in HSF cells [1]: did not cause any morphological changes
- induction of apoptosis [2]: induction of apoptotic pathways
- rate of wound healing [3]: decreased the rate of wound healing
- expression of metalloproteinase MMP-9 [4]: downregulation
- expression of p21 [5]: over-expression
- expression of p27 [6]: over-expression
- expression of p53 [7]: slight increase in the expression
- level of phosphorylated ERK [8]: decreased the level
- level of total ERK [9]: decreased the level
- relative expression of JNK [10]: overexpressed
- relative expression of MKK3 [11]: low expression
- relative expression of p38 [12]: low expression
